Data published in BigSolDB 2.1.

Cn1nccc1O
solubility (mole fraction)
Conditions | 278.15 K | 283.15 K | 288.15 K | 293.15 K | 298.15 K | 303.15 K | 308.15 K | 313.15 K | 318.15 K
in ethanol | 0.0822 | 0.0959 | 0.112 | 0.129 | 0.149 | 0.171 | 0.194 | 0.216 | 0.247
in ethyl acetate | 0.000394 | 0.000668 | 0.00119 | 0.00222 | 0.00348 | 0.00603 | 0.00922 | 0.0154 | 0.0245
in isobutanol | 0.1 | 0.118 | 0.138 | 0.161 | 0.183 | 0.208 | 0.242 | 0.272 | 0.308
in isopropanol | 0.079 | 0.0911 | 0.106 | 0.122 | 0.141 | 0.162 | 0.186 | 0.209 | 0.24
in methanol | 0.0905 | 0.107 | 0.126 | 0.146 | 0.172 | 0.201 | 0.234 | 0.266 | 0.308
in methyl acetate | 0.00741 | 0.00888 | 0.0109 | 0.0128 | 0.0156 | 0.0187 | 0.0217 | 0.0258 | 0.0312
in n-butanol | 0.0789 | 0.09 | 0.105 | 0.121 | 0.139 | 0.159 | 0.177 | 0.2 | 0.231
in n-butyl acetate | 0.000681 | 0.00102 | 0.00149 | 0.00216 | 0.00302 | 0.00433 | 0.00601 | 0.00846 | 0.0125
in n-pentyl acetate | 0.00428 | 0.00553 | 0.00705 | 0.0087 | 0.011 | 0.0138 | 0.0169 | 0.0201 | 0.0261
in n-propanol | 0.0801 | 0.0922 | 0.109 | 0.127 | 0.143 | 0.165 | 0.185 | 0.211 | 0.245
in n-propyl acetate | 0.000277 | 0.0005 | 0.000774 | 0.00138 | 0.00218 | 0.0032 | 0.00511 | 0.00843 | 0.0124
in sec-butanol | 0.0889 | 0.101 | 0.117 | 0.135 | 0.154 | 0.173 | 0.195 | 0.219 | 0.251
